Key:
[1] = Characteristics of fragrance components in words (vapor pressure, water solubility, oxidation); assay type: physicochemical
Excerpt: This test evaluated properties of fragrances with different levels of water solubility with regard to their effect on contributing to streaking/blooming.

[2] = Table 5; cited from earlier work

SMILES | Characteristics: water solubility ([1]; Table 5, in words) | Water Solubility ([1]; Table 6, in words) | Water Solubility ([1]; text b58, in words) | Characteristics: vapor pressure ([1]; Table 5, in words) | Vapor Pressure mm/Hg [2] | Characteristics: oxidation ([1]; Table 5, in words)
CCOC(=O)CC1(C)OCCO1 [Applinal = Fructone, Applinal] | High water | High | high | – | – | –
C=CC(C)CCCC(C)(C)O (stereo not drawn) [Dihydromyrcenol] | (2) Reasonable | Medium | – | (1) Fairly high | 0.7 mm/Hg | –
CC(C=O)Cc1ccc(C(C)(C)C)cc1 (stereo not drawn) [Lilial] | (3) Low water | Low | – | (1) Low vapor | 0.004 mm/Hg | (2) Easily oxidized

From patent US20080305978A1, “Cleaning compositions containing a hydrophilic fragrance” (S.C. Johnson & Son, Inc., priority 2007, published 2008)
